From ChEMBL document CHEMBL1128934, “Nonpeptide glycoprotein IIB/IIIA inhibitors. 12. Potent and orally active centrally constrained thieno[2,3-c]pyridones” (Bioorg Med Chem Lett, 1996)

Species on record: Homo sapiens
Assay: Compound was evaluated for inhibition of ex vivo ADP mediated platelet aggregation of human gel filtered platelets
Format: functional

Row | SMILES | IC50 [nM]
1 | O=C(NCc1ccccc1)N[C@@H](CNC(=O)c1cc2c(s1)CCN(CCC1CCNCC1)C2=O)C(=O)O | 25
2 | O=C(O)CCNC(=O)c1ccc2c(c1)C(=O)N(CCC1CCNCC1)C2 | 25
3 | CCCCS(=O)(=O)N[C@@H](CNC(=O)c1cc2c(s1)CCN(CCC1CCNCC1)C2=O)C(=O)O | 8
4 | O=C(O)CCNC(=O)c1cc2c(s1)CCN(CCC1CCNCC1)C2=O | 150
5 | O=C(NC[C@H](NS(=O)(=O)c1ccccc1)C(=O)O)c1cc2c(s1)CCN(CCC1CCNCC1)C2=O | 7
6 | C[C@H](CC(=O)O)NC(=O)c1cc2c(s1)CCN(CCC1CCNCC1)C2=O | 220
7 | O=C(NC[C@H](NS(=O)(=O)c1cccnc1)C(=O)O)c1cc2c(s1)CCN(CCC1CCNCC1)C2=O | 13
8 | CCCCS(=O)(=O)N[C@@H](CNC(=O)c1csc2c1C(=O)N(CCC1CCNCC1)CC2)C(=O)O | 33000
9 | O=C(O)CCCC(=O)c1cc2c(s1)CCN(CCC1CCNCC1)C2=O | 260
